From US5441875A, “Urea transporter polypeptide” (Brigham and Women's Hospital, priority 1993, dated 1995)
Like-named read-outs stand apart in the source and are kept apart here. Blank lines part the entries; values can stand above or below the molecule they belong to.

Tests used:
[1] = molecular target: T1, urea transporter polypeptide (Oryctolagus cuniculus, UniProt Q28614); experiment: cell-based; conditions: for effect on urea uptake of replacing mannitol in the incubation solution: 100 mM replacing mannitol; for effect of cAMP analogues on urea transporter-facilitated urea transport: 30 minute preincubation, 1 mM per analogue; for inhibition of urea transport by urea analogues: 150 mM analogue
T1 sequence (Q28614 1-397): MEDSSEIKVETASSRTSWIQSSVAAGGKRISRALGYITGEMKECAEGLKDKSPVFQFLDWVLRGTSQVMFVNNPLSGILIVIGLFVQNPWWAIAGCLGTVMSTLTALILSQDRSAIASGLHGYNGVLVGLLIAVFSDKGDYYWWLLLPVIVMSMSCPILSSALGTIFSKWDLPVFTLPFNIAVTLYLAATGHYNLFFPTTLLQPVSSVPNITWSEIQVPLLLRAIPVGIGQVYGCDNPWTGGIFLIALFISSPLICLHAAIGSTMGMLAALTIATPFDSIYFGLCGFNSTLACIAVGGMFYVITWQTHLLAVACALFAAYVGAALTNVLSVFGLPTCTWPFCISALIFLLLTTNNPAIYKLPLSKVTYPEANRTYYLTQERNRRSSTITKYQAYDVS
Procedure: (§1) The rabbit kidney medulla mRNA that is size fractionated by the preparative agarose gel electrophoresis was analyzed by oocyte expression assay. Large, fully grown oocytes (stage 5 and 6) with a diameter of 1.2-1.3 mm were hand dissected from ovarian fragments of Xenopus laevis, treated with 2 mg/ml type 1A collagenase to remove follicular cells and incubated in Barth's solution (in mM: 88 NaCl; 0.82 MgSO4; 0.33 Ca (NO3)2; 0.41 CaCl2; 2.4 NaHCO3; 10 HEPES, pH 7.4; 200 mosmol). After 16-24 hours, oocytes were injected with about 50 nl of mRNA or water and incubated in Barth's solution with gentamicin at about 18° C. for another three days after which uptake of ^14 C-urea was measured.
(§2) Unlabelled urea was deionized by passing it through an ion exchange column (AG501-X8 (D), 20-50 Mesh, Bio Rad) immediately before use. The uptake solution consisted of 2 microcuries ^14 C-urea; 1 mM urea; 200 mM mannitol; […]; 1 mM MgCl2; 1 mM CaCl2; 10 mM HEPES; and 5 mM TRIS, unless otherwise specified. In all uptake experiments oocytes were pre-incubated in uptake solution minus urea for one hour. After completion of the uptake, oocytes were washed with ice-cold wash solution (uptake solution without the labelled urea), dissolved in 10% SDS and used for scintillation counting.
Urea transport in the mammalian kidney is generally considered to be passive, although there is some evidence for active ion coupled transport. In studies addressing ion dependencies, urea uptake was measured in oocytes injected with urea transporter cRNA, as described above in Example 1. In the incubation solution, however, mannitol was replaced by NaCl (100 mM), choline chloride (100 mM) or sodium acetate (100 mM).
To study the uptake inhibition by phloretin, phloretin (Sigma) was dissolved in ethanol at 0.5M and added to the uptake solution to give the desired final concentration of 0.35 mM and 0.70 mM. The concentration of ethanol was no more than 0.1%. Ethanol at the same concentration is added to uptake solution without phloretin. Following 15 min pre-incubation in phloretin, ^14 C-urea was added and urea flux was then measured during 90 seconds.
For inhibition studies using urea analogues, all analogues were deionized as described in Example 1 immediately before use. […] Chou and Knepper, 257 Am. J. Physiol. F359-365 (1989).
It is possible that facilitation of urea transport by vasopressin is the result of direct phosphorylation of the transporter or of recruitment of functional transporters from intracellular vesicle pools.

[2] = molecular target: T1, urea transporter polypeptide; experiment: Two-microelectrode voltage clamp on urea transporter cRNA-injected oocytes; type: cell-based, rabbit; conditions: urea 1 and 100 mM; holding potential -60 mV
Procedure: Electrophysiological studies are in agreement with this finding. Electrophysiological measurements were made on oocytes 3-4 days after injection with urea transporter cRNA-injected oocytes using conventional two-microelectrode voltage clamp methods (Axoclamp-2A, Axon Instruments). Membrane current was measured in a standard bath of 96 mM NaCl; 2 mM KCl; 1.8 mM CaCl2; 1.0 mM MgCl2; and 5 mM HEPES, pH 7.4, at a holding potential of -60 mV.

[3] = tested on: water-injected control oocytes; conditions: not told, 1000 µM
Procedure: as §1, §2

[4] = tested on: urea transport in UT1 cRNA-injected oocytes; experiment: 14C-urea uptake into Xenopus oocytes injected with UT1 cRNA; type: cell-based, Xenopus laevis
Procedure: as §1, §2

[5] = tested on: urea transport induced by rabbit kidney medulla poly(A)+ RNA; experiment: 14C-urea uptake into Xenopus oocytes injected with poly(A)+ RNA from rabbit kidney medulla; type: cell-based; conditions: phloretin 0.25 mM, 14C-urea 50 mM
Procedure: Messenger RNA, fractionated as above, was collected in 0.6 ml fractions. In preliminary experiments, uptake of ^14 C-labelled urea (50 mM) was measured three days after injection at 5, 30 and 60 minute intervals. […] Phloretin at 0.25 mM inhibited the 30 minute uptake of urea by approximately 50%.

[6] = read-out: inhibition of urea uptake

Molecule: C[N+](C)(C)CCO.[Cl-] [choline chloride]
effect on urea uptake of replacing mannitol in the incubation solution [1]: no effect

Molecule: [Cl-].[Na+] [NaCl]
effect on urea uptake of replacing mannitol in the incubation solution [1]: did not alter urea uptake

effect of cAMP analogues on urea transporter-facilitated urea transport [1]: no effect
Molecule: CCCC(=O)Nc1ncnc2c1ncn2[C@@H]1O[C@@H]2COP(=O)(O)O[C@H]2[C@H]1OC(=O)CCC [dibutyryl cyclic-AMP]

Molecule: CC(=O)O [sodium acetate]
effect on urea uptake of replacing mannitol in the incubation solution [1]: no effect

membrane current evoked by bath applied urea [2]: did not evoke a significant current
maximum uptake of 14C-urea ([1]; 14C-urea 1 mM, between 10 and 30 minutes): approximately 250 pmoles/oocyte
saturation of urea transporter polypeptide-mediated urea transport ([1]; concentration range between 1 and 200 mM urea): no saturation
urea permeability of urea transporter-injected oocytes ([1]; not told, 1000 µM): 45 ×10⁻⁶ cm/s
permeability of water-injected control oocytes for urea [3]: 1.9 ×10⁻⁶ cm/s
Molecule: NC(N)=O [urea]

Molecule: NC(N)=S [Thiourea, thiourea]
inhibition of urea transport by urea analogues ([1]; 14C-urea 1 mM): 38%

inhibition of urea transport by urea analogues ([1]; 14C-urea 1 mM): 65%
Molecule: CNC(=O)NC [1,3 dimethylurea, 1,3-dimethylurea]

inhibition of urea transport by urea analogues ([1]; 14C-urea 1 mM): 38%
Molecule: CNC(N)=O [N-methylurea]

inhibition of urea transport by urea analogues ([1]; 14C-urea 1 mM): no significant effect
Molecule: CC(N)=O [acetamide]

Molecule: Nc1ncnc2c1ncn2C1OC2COP(O)(=S)OC2C1O (stereo not shown) [Sp-cAMPS]
effect of cAMP analogues on urea transporter-facilitated urea transport [1]: no effect

effect of cAMP analogues on urea transporter-facilitated urea transport [1]: no effect
Molecule: Nc1ncnc2c1nc(Br)n2[C@@H]1O[C@@H]2COP(=O)(O)O[C@H]2[C@H]1O [8-bromo-cAMP]

inhibition of urea transport by urea analogues ([1]; 14C-urea 1 mM): no significant effect
Molecule: CN(C)C(N)=O [1,1-dimethylurea]

Molecule: O=C(CCc1ccc(O)cc1)c1c(O)cc(O)cc1O [phloretin]
phloretin sensitivity of UT1-induced urea transport [4]: not phloretin-sensitive
inhibition of the 30 minute uptake of urea [5]: approximately 50%
inhibition at 350 µM [1, 6]: 48%
inhibition at 700 µM [1, 6]: 78%
inhibition at 350 µM ([1]; read-out: inhibition of urea uptake (phloretin-sensitivity of clone pool)): ~50%

increase of the permeability of oocytes to urea ([1]; versus water-injected control oocytes): 23 fold
B1: urea transporter: 397-amino acid residue membrane glycoprotein from rabbit kidney medulla (SEQ ID NO.: 2), expressed from UT2 cRNA (protein)
chain: T1 sequence (Q28614 1-397)
modifications: glycosylated
